Laboratory results as given in patent US20080214845A1, “ANTIBACTERIAL 6'-MODIFIED 4,5-SUBSTITUTED AMINOGLYCOSIDE ANALOGS” (priority 2005, published 2008).
≈ marks a conversion by molar mass, not a printed value.

How the values were obtained:
[1] = tested on: Staphylococcus aureus (Smith strain ATCC 13709); experiment: Staphylococcus aureus mouse protection assay; format: in vivo; details: Staph conc. 10^6 IP in 10% mucin, treatments at 1 hour and 3 hour post infection
Procedure: Two of the novel aminoglycoside compounds of the invention were examined for their anitbacterial activity against staphylococcus aureus. The mice were infected IP with 0.5 ml […] staphylococcus aureus in 10% mucin. There were 10 mice in each treated group with treatments at 1 hour and 3 hour post infection. The Ibis compounds (IBIS00561085 R4═R5═CH3 and IBIS00561141 R4═H, R5═(CH2)2C6H5) were used at 75 mg/kg, 37.5 mg/kg, 18.8 mg/kg, 9.4 mg/kg, 4.7 mg/kg, 2.3 mg/kg, 1.17 mg/kg and 0.5 mg/kg. Amakacin, Paromomycin and Neomycin were used as the positive controls at concentration of 2 mg/kg, 1 mg/kg and 0.5 mg/kg.

16S = experiment: Measurement of 16S Kd by FTICR mass spectrometry; format: binding
Procedure: (§1) Was performed according to the published report; […]-Lowery, […].; Mohan, […]. et al. Characterization of Low Affinity Complexes Between RNA and Small Molecules Using Electrospray Ionization Mass Spectrometry. J. Am. Chem. […] Screening is performed by measuring the formation of non-covalent complexes between a single ligand or ligand mixture and the appropriate RNA target, along with suitable control structured RNA target(s) simultaneously using a 9.4 T FT-ICR mass spectrometer as detector. Full experimental details of the assay have been described in related literature ([…]-Lowery, et al. in TrAC, Trends Anal. […] The abundances were integrated from the respective ions for free RNA and the ligand-RNA complex. […] The peak ratios are measured at each concentration, then a plot of complex/free RNA versus concentration of ligand added is fitted to a second (or higher) order binding polynomial to determine the KD.

S. Aureus = experiment: Minimum inhibitory concentration (MIC), S. aureus; format: cell-based; details: range of concentration, 20-24 hours at 37° C., A595; for MIC: Staphylococcus aureus
Procedure: (§2) The assays are carried out in 150 μL volume in duplicate in 96-well clear flat-bottom plates. The bacterial suspension from an overnight culture growth in appropriate medium is added to a solution of test compound in 2.5% DMSO in water. Final bacterial inoculum is approximately 10^2-10^3 CFU/well. The percentage growth of the bacteria in test wells relative to that observed for a control wells containing no compound is determined by measuring absorbance at 595 nm (A595) after 20-24 hours at 37° C. The MIC is determined as a range of concentration where complete inhibition of growth is observed at the higher concentration and bacterial cells are viable at the lower concentration. Both ampicillin and tetracycline are used as antibiotic positive controls in each screening assay.

E. Coli. = experiment: Minimum inhibitory concentration (MIC), E. coli; format: cell-based; details: range of concentration, 20-24 hours at 37° C., A595; for MIC: Escherichia coli
Procedure: as §2

18S = 18S Kd by FTICR mass spectrometry; format: binding
Procedure: as §1

[2] = tested on: E. coli S30 bacterial extract (pBest Luc luciferase transcription/translation); experiment: Coupled bacterial transcription/translation assay (T/T); format: biochemical; details: luciferase reporter, 35 minutes at 37° C., read-out: Trans/Trans IC50
Procedure: The DNA template, pBest Luc™ (Promega), is a plasmid containing a reporter gene for firefly luciferase fused to a strong tac promoter and ribosome binding site. Messenger RNA from 1 μg pBestLuc was transcribed and translated in E. coli S30 bacterial extract in the presence or absence of test compound. Compounds were tested in a black 96 well microtiter plate with an assay volume of […]. Each test well contained: 5 μL test compound, 13 μL S30 premix (Promega), 4 μL 10× complete amino acid mix (1 mM each), 5 μL E. coli S30 extract and 8 μL of 0.125 μg/μL pBest Luc™. The transcription/translation reaction was incubated for 35 minutes at 37° C. followed by detection of functional luciferase with the addition of 30 μL LucLite™ (Packard). Light output was quantitated on a Packard TopCount.

## NCC[C@H](O)C(=O)N[C@@H]1C[C@H](N)[C@@H](O[C@H]2O[C@H](CN)[C@@H](O)[C@H](O)[C@H]2O)[C@H](O)[C@H]1O[C@H]1O[C@H](CO)[C@@H](O)[C@H](N)[C@H]1O [Amikacin]
[1]; 0.5 mg/kg
  # Dead mice/Total mice in group: 8/10 (10% Mucin)
[1]; 1 mg/kg
  # Dead mice/Total mice in group: 10/10 (10% Mucin)
[1]; 2 mg/kg
  # Dead mice/Total mice in group: 8/10 (10% Mucin)

## CNC[C@H]1O[C@H](O[C@H]2[C@H](O[C@@H]3O[C@H](CO)[C@@H](O[C@H]4O[C@@H](CN)[C@@H](O)[C@H](O)[C@H]4N)[C@H]3O)[C@@H](O)[C@H](N)C[C@@H]2N)[C@H](N)[C@@H](O)[C@@H]1O [IBIS00560186]
16S
  Kd: 362 nM
S. Aureus
  MIC S. Aureus: 2 to 3 µM
E. Coli.
  MIC E. Coli.: 2 to 3 µM
18S
  Kd: 1160 nM
[2]
  IC50: 159 nM

## NC[C@@H]1O[C@H](O[C@H]2[C@@H](O)[C@H](O[C@@H]3[C@@H](O)[C@H](N)C[C@H](N)[C@H]3O[C@H]3O[C@H](CNN)[C@@H](O)[C@H](O)[C@H]3N)O[C@@H]2CO)[C@H](N)[C@@H](O)[C@@H]1O [IBIS00560187]
16S
  Kd: 564 nM
S. Aureus
  MIC S. Aureus: 3 to 6 µM
E. Coli.
  MIC E. Coli.: 12 to 25 µM
18S
  Kd: 1660 nM
[2]
  IC50: 235 nM

## CC(C)(C)OC(=O)NNC[C@H]1O[C@H](O[C@H]2[C@H](O[C@@H]3O[C@H](CO)[C@@H](O[C@H]4O[C@@H](CN)[C@@H](O)[C@H](O)[C@H]4N)[C@H]3O)[C@@H](O)[C@H](N)C[C@@H]2N)[C@H](N)[C@@H](O)[C@@H]1O [IBIS00561082]
16S
  Kd: 14.9 nM
S. Aureus
  MIC S. Aureus: 12 to 25 µM
E. Coli.
  MIC E. Coli.: 6 to 12 µM
18S
  Kd: 1350 nM
[2]
  IC50: 308 nM

## CC(C)NC[C@H]1O[C@H](O[C@H]2[C@H](O[C@@H]3O[C@H](CO)[C@@H](O[C@H]4O[C@@H](CN)[C@@H](O)[C@H](O)[C@H]4N)[C@H]3O)[C@@H](O)[C@H](N)C[C@@H]2N)[C@H](N)[C@@H](O)[C@@H]1O [IBIS00561095]
16S
  Kd: 1180 nM
S. Aureus
  MIC S. Aureus: 1.25 to 2.5 µM
E. Coli.
  MIC E. Coli.: 2.5 to 5.0 µM
18S
  Kd: 1200 nM
[2]
  IC50: 202 nM

## Cc1ccc(CCNC[C@H]2O[C@H](O[C@H]3[C@H](O[C@@H]4O[C@H](CO)[C@@H](O[C@H]5O[C@@H](CN)[C@@H](O)[C@H](O)[C@H]5N)[C@H]4O)[C@@H](O)[C@H](N)C[C@@H]3N)[C@H](N)[C@@H](O)[C@@H]2O)cc1 [IBIS00561930]
S. Aureus
  MIC S. Aureus: 0.6 to 1.2 µM
E. Coli.
  MIC E. Coli.: 2.5 to 5.0 µM

## CN(CCc1ccccc1)C[C@H]1O[C@H](O[C@H]2[C@H](O[C@@H]3O[C@H](CO)[C@@H](O[C@H]4O[C@@H](CN)[C@@H](O)[C@H](O)[C@H]4N)[C@H]3O)[C@@H](O)[C@H](N)C[C@@H]2N)[C@H](N)[C@@H](O)[C@@H]1O [IBIS00561931]
S. Aureus
  MIC S. Aureus: 0.31 to 0.62 µM
E. Coli.
  MIC E. Coli.: 2.5 to 5.0 µM

## NC[C@@H]1O[C@H](O[C@H]2[C@@H](O)[C@H](O[C@@H]3[C@@H](O)[C@H](N)C[C@H](N)[C@H]3O[C@H]3O[C@H](CNCCCc4ccccc4)[C@@H](O)[C@H](O)[C@H]3N)O[C@@H]2CO)[C@H](N)[C@@H](O)[C@@H]1O [IBIS00561932]
S. Aureus
  MIC S. Aureus: 0.31 to 0.62 µM
E. Coli.
  MIC E. Coli.: 0.6 to 1.2 µM

## COc1ccc(CCNC[C@H]2O[C@H](O[C@H]3[C@H](O[C@@H]4O[C@H](CO)[C@@H](O[C@H]5O[C@@H](CN)[C@@H](O)[C@H](O)[C@H]5N)[C@H]4O)[C@@H](O)[C@H](N)C[C@@H]3N)[C@H](N)[C@@H](O)[C@@H]2O)cc1 [IBIS00561933]
S. Aureus
  MIC: 0.31 to 0.62 µM (≈ 0.232 to 0.464 µg/mL)
E. Coli.
  MIC: 1.25 to 2.5 µM (≈ 0.936 to 1.87 µg/mL)

## COc1cccc(CCNC[C@H]2O[C@H](O[C@H]3[C@H](O[C@@H]4O[C@H](CO)[C@@H](O[C@H]5O[C@@H](CN)[C@@H](O)[C@H](O)[C@H]5N)[C@H]4O)[C@@H](O)[C@H](N)C[C@@H]3N)[C@H](N)[C@@H](O)[C@@H]2O)c1 [IBIS00561934]
S. Aureus
  MIC S. Aureus: 0.31 to 0.62 µM
E. Coli.
  MIC E. Coli.: 1.25 to 2.5 µM

## COc1ccccc1CCNC[C@H]1O[C@H](O[C@H]2[C@H](O[C@@H]3O[C@H](CO)[C@@H](O[C@H]4O[C@@H](CN)[C@@H](O)[C@H](O)[C@H]4N)[C@H]3O)[C@@H](O)[C@H](N)C[C@@H]2N)[C@H](N)[C@@H](O)[C@@H]1O [IBIS00561935]
S. Aureus
  MIC S. Aureus: 0.31 to 0.62 µM
E. Coli.
  MIC E. Coli.: 1.25 to 2.5 µM

## NCC1OC(OC2C(CO)OC(OC3C(O)C(N)CC(N)C3OC3OC(CNCC(O)c4ccccc4)C(O)C(O)C3N)C2O)C(N)C(O)C1O (centres unmarked) [IBIS00561937]
S. Aureus
  MIC S. Aureus: 0.6 to 1.2 µM
E. Coli.
  MIC E. Coli.: 5.0 to 10.0 µM

## NC[C@@H]1O[C@H](O[C@H]2[C@@H](O)[C@H](O[C@@H]3[C@@H](O)[C@H](N)C[C@H](N)[C@H]3O[C@H]3O[C@H](CN4CCC5CCCCC54)[C@@H](O)[C@H](O)[C@H]3N)O[C@@H]2CO)[C@H](N)[C@@H](O)[C@@H]1O (some centres unmarked) [IBIS00561939]
S. Aureus
  MIC: 0.31 to 0.62 µM (≈ 0.224 to 0.448 µg/mL)
E. Coli.
  MIC: 1.25 to 2.5 µM (≈ 0.904 to 1.81 µg/mL)

## NCC1OC(OC2C(CO)OC(OC3C(O)C(N)CC(N)C3OC3OC(CNCCc4c[nH]c5ccccc45)C(O)C(O)C3N)C2O)C(N)C(O)C1O (centres unmarked) [IBIS00561940]
S. Aureus
  MIC S. Aureus: 1.25 to 2.5 µM
E. Coli.
  MIC E. Coli.: 1.25 to 2.5 µM

## NC[C@@H]1O[C@H](O[C@H]2[C@@H](O)[C@H](O[C@@H]3[C@@H](O)[C@H](N)C[C@H](N)[C@H]3O[C@H]3O[C@H](CNCCc4ccc(C(F)(F)F)cc4)[C@@H](O)[C@H](O)[C@H]3N)O[C@@H]2CO)[C@H](N)[C@@H](O)[C@@H]1O [IBIS00561942]
S. Aureus
  MIC S. Aureus: 0.31 to 0.62 µM
E. Coli.
  MIC E. Coli.: 1.25 to 2.5 µM

## NC[C@@H]1O[C@H](O[C@H]2[C@@H](O)[C@H](O[C@@H]3[C@@H](O)[C@H](N)C[C@H](N)[C@H]3O[C@H]3O[C@H](CNCCc4cccc(C(F)(F)F)c4)[C@@H](O)[C@H](O)[C@H]3N)O[C@@H]2CO)[C@H](N)[C@@H](O)[C@@H]1O [IBIS00561943]
S. Aureus
  MIC: 0.16 to 0.31 µM (≈ 0.126 to 0.244 µg/mL)
E. Coli.
  MIC: 0.6 to 1.2 µM (≈ 0.472 to 0.944 µg/mL)

## NC[C@@H]1O[C@H](O[C@H]2[C@@H](O)[C@H](O[C@@H]3[C@@H](O)[C@H](N)C[C@H](N)[C@H]3O[C@H]3O[C@H](CNCCc4ccc(F)cc4)[C@@H](O)[C@H](O)[C@H]3N)O[C@@H]2CO)[C@H](N)[C@@H](O)[C@@H]1O [IBIS00561944]
S. Aureus
  MIC S. Aureus: 0.16 to 0.31 µM
E. Coli.
  MIC E. Coli.: 0.6 to 1.2 µM

## NC[C@@H]1O[C@H](O[C@H]2[C@@H](O)[C@H](O[C@@H]3[C@@H](O)[C@H](N)C[C@H](N)[C@H]3O[C@H]3O[C@H](CO)[C@@H](O)[C@H](O)[C@H]3N)O[C@@H]2CO)[C@H](N)[C@@H](O)[C@@H]1O [Paromomycin]
[1]; 0.5 mg/kg
  # Dead mice/Total mice in group: 10/10 (10% Mucin)
[1]; 1 mg/kg
  # Dead mice/Total mice in group: 10/10 (10% Mucin)
[1]; 2 mg/kg
  # Dead mice/Total mice in group: 9/10 (10% Mucin)

## Neomycin
[1]; 0.5 mg/kg
  # Dead mice/Total mice in group: 7/10 (10% Mucin)
[1]; 1 mg/kg
  # Dead mice/Total mice in group: 10/10 (10% Mucin)
[1]; 2 mg/kg
  # Dead mice/Total mice in group: 4/10 (10% Mucin)
